What all share (type): cell-based
Test [1] deals with T1, N-formyl peptide receptor 2 (Homo sapiens) (UniProt P25090).
T1 sequence (whole entry): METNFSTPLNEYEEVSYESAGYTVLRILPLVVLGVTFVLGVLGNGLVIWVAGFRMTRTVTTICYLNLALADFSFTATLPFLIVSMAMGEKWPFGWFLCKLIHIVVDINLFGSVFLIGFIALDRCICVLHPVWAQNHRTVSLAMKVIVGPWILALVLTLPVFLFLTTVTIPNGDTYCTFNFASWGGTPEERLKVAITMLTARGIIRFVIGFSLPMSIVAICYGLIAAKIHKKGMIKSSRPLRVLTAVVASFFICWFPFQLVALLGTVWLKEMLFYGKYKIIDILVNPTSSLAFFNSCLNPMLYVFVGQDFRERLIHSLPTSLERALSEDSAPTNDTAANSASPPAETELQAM
In words: Agonist activity at ALX/FPR2 in human THP1 cells harboring NF-kB-Luc assessed as inhibition of LPS-induced NFkB signalling activation by measuring NF-kB activation level at 10^-11 M pretreated for 30 mins followed by LPS stimulation for 24 hrs by luciferase reporter gene assay. Also on record: scale not given: the % may be the effect or the level left. (In general: A reporter such as luciferase makes a cellular process visible.)

For test [2], the target named is T2, N-formyl peptide receptor 2 (Homo sapiens, UniProt P25090).
T2 sequence (P25090 whole entry): T1 sequence (whole entry)
Briefly: Agonist activity at ALX/FPR2 in human THP1 cells harboring NF-kB-Luc assessed as inhibition of LPS-induced NFkB signalling activation by measuring reduction in IFNgamma secretion pretreated for 30 mins followed by LPS stimulation for 24 hrs by electrochemiluminescence assay. The settings on record: read-out: IC50.

The target of test [3] is T1, N-formyl peptide receptor 2 (Homo sapiens). Briefly: Agonist activity at ALX/FPR2 in human THP1 cells harboring NF-kB-Luc assessed as inhibition of LPS-induced NFkB signalling activation by measuring IL-1beta secretion at 10^-11 M pretreated for 30 mins followed by LPS stimulation for 24 hrs by electrochemiluminescence assay. More on the design: scale not given: the % may be the effect or the level left.

For test [4] the target is unchanged. Briefly: Agonist activity at ALX/FPR2 in human THP1 cells harboring NF-kB-Luc assessed as inhibition of LPS-induced NFkB signalling activation by measuring IL-6 secretion at 10^-9 M pretreated for 30 mins followed by LPS stimulation for 24 hrs by electrochemiluminescence assay. Also on record: scale not given: the % may be the effect or the level left.
Test [5] shares this target. Briefly: Agonist activity at ALX/FPR2 in human THP1 cells harboring NF-kB-Luc assessed as inhibition of LPS-induced NFkB signalling activation by measuring IFNgamma secretion at 10^-7 M pretreated for 30 mins followed by LPS stimulation for 24 hrs by electrochemiluminescence assay. Also on record: scale not given: the % may be the effect or the level left.
For test [6] the target is unchanged. In words: Agonist activity at ALX/FPR2 in human THP1 cells harboring NF-kB-Luc assessed as inhibition of LPS-induced NFkB signalling activation by measuring NF-kB activation level at 10^-6 M pretreated for 30 mins followed by LPS stimulation for 24 hrs by luciferase reporter gene assay. Also on record: scale not given: the % may be the effect or the level left.

A further test is filed under the species Homo sapiens. Briefly: Activation of Luc-fused NFkB (unknown origin) expressed in non-stimulated human THP1 cells assessed as relative luminescence unit at 10^-9 M after 24 hrs by luciferase reporter gene assay (reference value: 100%).
Test [7] concerns the target T1, N-formyl peptide receptor 2 (Homo sapiens). In words: Agonist activity at ALX/FPR2 in human THP1 cells harboring NF-kB-Luc assessed as inhibition of LPS-induced NFkB signalling activation by measuring IL-12p70 secretion at 10^-11 M pretreated for 30 mins followed by LPS stimulation for 24 hrs by electrochemiluminescence assay. More on the design: scale not given: the % may be the effect or the level left.

The target is the same in test [8]. Briefly: Agonist activity at ALX/FPR2 in human THP1 cells harboring NF-kB-Luc assessed as inhibition of LPS-induced NFkB signalling activation by measuring NF-kB activation level at 10^-8 M pretreated for 30 mins followed by LPS stimulation for 24 hrs by luciferase reporter gene assay. Also on record: scale not given: the % may be the effect or the level left.

Test [9] has the same target. Briefly: Agonist activity at ALX/FPR2 in human THP1 cells harboring NF-kB-Luc assessed as inhibition of LPS-induced NFkB signalling activation by measuring NF-kB activation level at 10^-7 M pretreated for 30 mins followed by LPS stimulation for 24 hrs by luciferase reporter gene assay. More on the design: scale not given: the % may be the effect or the level left.
Test [10] concerns the target T2, N-formyl peptide receptor 2. In words: Agonist activity at ALX/FPR2 in human THP1 cells harboring NF-kB-Luc assessed as inhibition of LPS-induced NFkB signalling activation by measuring reduction in IL-12p70 secretion pretreated for 30 mins followed by LPS stimulation for 24 hrs by electrochemiluminescence assay. The settings on record: read-out: IC50.
Test [11] deals with T1, N-formyl peptide receptor 2 (Homo sapiens). In words: Agonist activity at ALX/FPR2 in human THP1 cells harboring NF-kB-Luc assessed as inhibition of LPS-induced NFkB signalling activation by measuring IL-12p70 secretion at 10^-9 M pretreated for 30 mins followed by LPS stimulation for 24 hrs by electrochemiluminescence assay. More on the design: scale not given: the % may be the effect or the level left.

For test [12] the target is unchanged. In words: Agonist activity at ALX/FPR2 in human THP1 cells harboring NF-kB-Luc assessed as inhibition of LPS-induced NFkB signalling activation by measuring IL-6 secretion at 10^-7 M pretreated for 30 mins followed by LPS stimulation for 24 hrs by electrochemiluminescence assay. More on the design: scale not given: the % may be the effect or the level left.

The target in test [13] is T2, N-formyl peptide receptor 2. In words: Agonist activity at ALX/FPR2 in human THP1 cells harboring NF-kB-Luc assessed as inhibition of LPS-induced NFkB signalling activation by measuring reduction in TNFalpha secretion pretreated for 30 mins followed by LPS stimulation for 24 hrs by electrochemiluminescence assay. The settings on record: read-out: IC50.
For test [14], the target named is T1, N-formyl peptide receptor 2 (Homo sapiens). In words: Agonist activity at ALX/FPR2 in human THP1 cells harboring NF-kB-Luc assessed as inhibition of LPS-induced NFkB signalling activation by measuring NF-kB activation level at 10^-9 M pretreated for 30 mins followed by LPS stimulation for 24 hrs by luciferase reporter gene assay. Also on record: scale not given: the % may be the effect or the level left.

The target is the same in test [15]. Briefly: Agonist activity at ALX/FPR2 in human THP1 cells harboring NF-kB-Luc assessed as inhibition of LPS-induced NFkB signalling activation by measuring IL-6 secretion at 10^-11 M pretreated for 30 mins followed by LPS stimulation for 24 hrs by electrochemiluminescence assay. Also on record: scale not given: the % may be the effect or the level left.
The target is the same in test [16]. Briefly: Agonist activity at ALX/FPR2 in human THP1 cells harboring NF-kB-Luc assessed as inhibition of LPS-induced NFkB signalling activation by measuring TNFalpha secretion at 10^-9 M pretreated for 30 mins followed by LPS stimulation for 24 hrs by electrochemiluminescence assay. More on the design: scale not given: the % may be the effect or the level left.

Test [17] shares this target. In words: Agonist activity at ALX/FPR2 in human THP1 cells harboring NF-kB-Luc assessed as inhibition of LPS-induced NFkB signalling activation by measuring NF-kB activation level at 10^-12 M pretreated for 30 mins followed by LPS stimulation for 24 hrs by luciferase reporter gene assay. Also on record: scale not given: the % may be the effect or the level left.
The target of test [18] is T2, N-formyl peptide receptor 2. In words: Agonist activity at ALX/FPR2 in human THP1 cells harboring NF-kB-Luc assessed as inhibition of LPS-induced NFkB signalling activation pretreated for 30 mins followed by LPS stimulation for 24 hrs by luciferase reporter gene assay.
Test [19] has as its target T1, N-formyl peptide receptor 2 (Homo sapiens). Briefly: Agonist activity at ALX/FPR2 in human THP1 cells harboring NF-kB-Luc assessed as inhibition of LPS-induced NFkB signalling activation by measuring NF-kB activation level at 10^-10 M pretreated for 30 mins followed by LPS stimulation for 24 hrs by luciferase reporter gene assay. Also on record: scale not given: the % may be the effect or the level left.

What is called IC50 is the concentration that gives 50% inhibition.

As for `CCCCC[C@H](O)/C=C/C=C\C=C\C=C\[C@@H](O)[C@@H](O)CCCC(=O)O` [LIPOXIN A4], the Activity in test [1] was 95.5%; in test [3], 6.6%; in [4] it was 1.1%; in [5] it was 32%; in test [6], 93.3%; in the test filed under Homo sapiens, 1.5%. In addition, the Activity in [7] was 25.7%; in test [8], 83.3%; in [9] it was 76%; in [11], 37.1%; in test [12] it was 1.7%; in test [14], 84.2%. The Activity in [15] came to 2.6%; in [16] it was 16.9%; in [17] it was 95.3%; in test [19], 85.6%. Moreover, the IC50 in [2] worked out at 22.2 nM; in test [10], 11.8 nM; in test [13], 7.7 nM; in [18], 26.3 nM.

For the compound `CCCCC[C@@H](O)c1nc(-c2ccccc2)n(-c2ccccc2)c1/C=C/[C@@H](O)[C@@H](O)CCCC(=O)OC`, the Activity turned out to be 94.3% in test [1]; 49.6% in test [3]; 64.4% in [4]; 95% in test [5]; 88.5% in test [6]; 1.5% in the test filed under Homo sapiens. The Activity in [7] came out at 67.7%; in [8] it was 84.4%; in test [9] it was 88.2%; in test [11] it was 68.3%; in test [12], 83.7%; in [14], 85.2%. Besides, the Activity turned out to be 58.7% in test [15], 68.6% in test [16], 99.5% in test [17] and 91.2% in test [19]. The IC50 in [2] came to 18.5 nM; in test [10] it was 10 nM; in [13], 7.1 nM; in test [18] it was 26.2 nM.

With `CCCCC[C@H](O)c1nc(-c2ccccc2)n(-c2ccccc2)c1/C=C/[C@@H](O)[C@@H](O)CCCC(=O)OC`, the Activity was determined as 83.4% in test [1]; 50.3% in [3]; 77.3% in [4]; 129% in [5]; 90.2% in [6]; 1.6% in the test listed under Homo sapiens. Further, the Activity in test [7] came to 65.1%; in test [8], 80.4%; in [9], 82.2%; in test [11] it was 61.4%; in [12] it was 64.9%; in test [14], 80.3%. In addition, the Activity in [15] worked out at 69%; in test [16], 80.9%; in [17], 88.2%; in test [19], 79.7%. Besides, the half-inhibitory concentration (IC50) in test [2] was 0.7 nM; in test [10], 1 nM; in [13], 4.1 nM; in test [18], 32.4 nM.

These data come from ChEMBL document CHEMBL4382216, “Asymmetric synthesis and biological evaluation of imidazole- and oxazole-containing synthetic lipoxin A4 mimetics (sLXms)” (Eur J Med Chem, 2019).
